Measured values from patent US8389276B2 (priority 2001, dated 2013).
Where two headings read alike, the source gives them in different places.

Columns and labels:
[1] = test system: primary fibroblasts isolated from Bax/Bak double deficient mice; type: cell-based, mouse
Description: (§1) To study how the apoptotic machinery is regulated, mice deficient in both Bax and Bak have been produced. […] The characteristics of Bax/Bak double deficient mice are described in greater detail in our publications: Lindsten, T., Ross, A. J., King, A., Zong, W. X., Rathmell, J. C., Shiels, H. A., Ulrich, E., Waymire, K. G., Mahar, P., Frauwirth, K., Chen, Y., Wei, M., Eng, V. M., Adelman, D. M., Simon, M. C., Ma, A., Golden, J. A., Evan, G., Korsmeyer, S. J., MacGregor, G. R., and Thompson, C.

[2] = test system: wild type immortal cells; test: Death rate of wild type immortalized cells after death stimuli (DAPI staining, FACS); type: cell-based, mouse; settings: 24 hours, DAPI 1 μg/ml, FIG. 3A
Protocol: (§2) This example relates to determining that immortalized Bax/Bak doubly deficient cells are resistant to wide variety of death stimuli, including BH-3 only proapoptotic proteins. To test whether immortal Bax/Bak double deficient cells behave like primary Bax/Bak double deficient cells in resisting intrinsic cell death stimuli, wild type and Bax/Bak doubly deficient cells were treated with serum deprivation, etoposide (100 μM), staurosporin (4 μM), or brefeldin A (10 μg/ml). 24 hours later, cells were stained with DAPI (1 μg/ml), and death rate determined by FACS. Wild type immortal cells were killed by each of these death stimuli. This is consistent with the findings in the primary MEF cells.

[3] = test system: Bax/Bak doubly deficient cells; test: Death rate of Bax/Bak doubly deficient immortalized cells after death stimuli (DAPI staining, FACS); type: cell-based, mouse; settings: Bax/Bak doubly deficient immortal cells, 24 hours, DAPI 1 μg/ml, FIG. 3A
Protocol: as §2

[4] = test system: thymocytes isolated from the Bax/Bak double deficient mice
Description: as §1

[5] = primary fibroblasts from Bax/Bak double deficient mice

tharpsigargin
resistance to death stimulus [1, 5]: resistant

CN[C@@H]1C[C@H]2O[C@@](C)([C@@H]1OC)n1c3ccccc3c3c4c(c5c6ccccc6n2c5c31)C(=O)NC4 [staurosporin]
cell death (death rate by FACS) ([2]; staurosporin 4 μM): killed | cell death (death rate by FACS) ([3]; staurosporin 4 μM): survived | resistance to death stimulus [1]: resistant

C[C@H]1CCC/C=C/[C@@H]2C[C@H](O)C[C@H]2[C@H](O)/C=C/C(=O)O1 [brefeldin A]
cell death (death rate by FACS) ([2]; brefeldin A 10 μg/ml): killed | cell death (death rate by FACS) ([3]; brefeldin A 10 μg/ml): survived | resistance to death stimulus [1, 5]: resistant

COc1cc([C@@H]2c3cc4c(cc3[C@@H](O[C@@H]3O[C@@H]5CO[C@@H](C)O[C@H]5[C@H](O)[C@H]3O)[C@H]3COC(=O)[C@H]23)OCO4)cc(OC)c1O [etoposide]
cell death (death rate by FACS) ([2]; etoposide 100 μM): killed | cell death (death rate by FACS) ([3]; etoposide 100 μM): survived | resistance to death stimulus [1, 5]: resistant | resistance to induced cell death [4]: resistant

tunicamycin
resistance to death stimulus [1, 5]: resistant
